# Assay results as given in patent US12613249B2 (THE ROYAL INSTITUTION FOR THE ADVANCEMENT OF LEARNING / …, priority 2019, dated 2026).
# Values joined by “and” are separate entries in the source; they are usually repeats but may differ in a detail not shown here. Identical values can stand only once. Square brackets hold non-standard residues; d marks the D form. Peptide text beside a SMILES is read from it.
# What was measured:
# [1] = Ex-vivo stability in mouse whole blood, MALDI-TOF MS; format: in vitro ADME
# Procedure: The stability of D-AIP in mouse plasma, blood and liver S-9 fraction was investigated to ascertain the metabolic resistance towards proteases and enzymatic activities in these matrices. Whole mouse blood obtained from healthy C57BL/6 male and female mice (6 mice in total) were collected in lithium heparin containing tubes, pooled and stored at 4° C. prior to its use. A fraction of the pooled blood was immediately centrifuged at 1500×g for 10 min at 4° C. to obtain the plasma. The whole blood and plasma samples were spiked with PBS (as control) or AIP (L-AIP, D-AIP or sD-AIP respectively) to make a final concentration of 1 ug/mL and incubated at 37° C. Initial samples were withdrawn to represent t=0 prior to incubation and others were withdrawn 1, 3 and 24 h respectively. Fresh mouse liver also obtained from C57BL/6 male and female mice were pooled, homogenized in 0.15 M Potassium chloride (KCl) and centrifuged at 9000×g. The supernatant represents liver homogenate (S-9) fraction which was mixed with other buffers to formulate the liver S-9 mix as previously described (Kolrep et al., 2017, Toxicol In Vitro, 42:161-170). Liver S-9 mix were spiked with AIP to make a final concentration of 1 μg/mL (L-AIP, D-AIP or sD-AIP respectively) and incubated at 37° C. Just after the addition of NADPH, 100 μL aliquot which represents t=0 samples were withdrawn and others were sampled accordingly at predetermined time points. 400 μL of ice cold MeOH was added to the spiked plasma, blood or liver S-9 fraction respectively, to precipitate the microsomal protein. The samples were then vigorously mixed for 30 s to facilitate extraction and centrifuged for 10 minutes at 13000 rpm, the supernatant was subjected to sample clean up by C18 ZipTip (EMD Millipore Corporation), the eluates were spotted with CHCA matrix on the ground steel MALDI-TOF target and analyzed with MALDI-TOF MS. Applying the t=0 peak area as 100% the intensities of the other time points were compared relatively for interpretation. […]
# [2] = Plasma pharmacokinetics after single oral dose, LC-MS; format: in vivo, C57BL/6 mice; settings: for CL/F (apparent total clearance from plasma) / λz (elimination rate constant): plasma
# Procedure: An internal standard (IS) for the reliable quantification of D-AIP in biological matrices was prepared by dimethylation to produce an analog of D-AIP by using a protocol previously described (Boersema et al., 2009, Nat Protoc, 4:484-494). Standard solutions (1 mg/mL) each of D-AIP and IS were prepared in deionized water and 100% methanol respectively. 100 μL of IS working solution was prepared at 50 ng/ml added to 25 μL of the sample (plasma or brain homogenate). The sample was vortexed for approximately 5 s and let stand for 10 min, then centrifuged at 16,000 g for 10 min. The supernatant was transferred to a 13×100 polypropylene tube and evaporated to dryness at 50° C. under gentle stream of nitrogen. The dry extract was re-suspended with 40 μL of 0.1% (v/v) formic acid (Sigma Aldrich, St-Louis, MO, USA) in deionized water and transferred to an injection vial for analysis.
# Thermo Scientific TSQ Quantiva Triple Quadrupole mass spectrometer (San Jose, CA, USA) was interfaced with the Thermo Scientific UltiMate 3000 XRS UHPLC system (San Jose, CA, USA) using a pneumatic assisted heated electrospray ion source. Data acquisition and analysis were performed using Xcalibur 4.0 (San Jose, CA, USA).
# […]radient elution was used with a Thermo Scientific BioBasic-8 column (100×2 mm I.D. 5 μm) operating at 40° C. The initial mobile phase condition consisted of 0.1% formic acid in acetonitrile and 0.1% formic acid in deionized water at a ratio of 5:95, respectively and this ration was maintained for 1 min. A linear gradient was applied from 1 to 5 min up to a ratio of 50:50 and maintained for 1 min. At 6.1 min, the mobile phase composition was reverted to 5:95 and the column was allowed to equilibrate for 7.9 min for a total run time of 14 min. The D-AIP and IS eluted at 4.7 and 4.8 min respectively at a fixed flow rate of 0.2 mL/min. The eluent was diverted to waste for the first minute and last six minutes. Extracted sample (5 μL) was injected and the acquisition time was set to 14 min.
# The mass spectrometer was interfaced with ultra-high-performance liquid chromatography (UHPLC) system using a pneumatic assisted heated electrospray ion source with detection in positive ion mode using […] (MRM). For proper optimization of the mass spectrometer, standard solutions of D-AIP and IS were infused. The obtained source parameters were 50 and 15 arbitrary units respectively while using nitrogen for the sheath and auxiliary gases. The HESI electrode was set to 3500 V, capillary and vaporizer temperature were both set to 300° C. respectively. The MS/MS parameters were optimized using the doubly charged species. Argon was used as collision gas at a pressure of 2.5 mTorr. The precursor-ion reaction for D-AIP were set to 471.4→[591.8+648.3] and for the IS the MRM transitions were set to 499.4→[425.8+468.8+476.8]
# Standard solution of D-AIP (1 mg/mL) was diluted in various volumes of deionized water to obtain series of standard working solutions. Calibration standards were prepared by fortifying the mouse plasma and mouse brain homogenate with the standard working solutions at 10% (v/v) to enable analytical concentration range of 1.00 to 1000 ng/ml. The method is linear using a linear regression weighted 1/x analysis, a value of R^2≥0.9979 was obtained for plasma and R^2≥0.9991 for brain homogenate. Samples were injected in duplicate with the calculated in each case and concentrations were processed from the equation obtained from the respective calibration curves using Xcalibur 4.0 software.
# Animal care and all animal experiments were undertaken with federal guidelines and approval of the Institutional Animal Ethical Committee of McGill University, Montreal, Canada (Protocol Application Number: 2017-7880) and adequate measures were taken to minimize pain or discomfort. […]
# [3] = female C57BL/6 mice, single oral dose 10 mg/kg
# [4] = female C57BL/6 mice, single oral dose 30 mg/kg
# [5] = female C57BL/6 mice, single oral dose 100 mg/kg
# [6] = male C57BL/6 mice, single oral dose 10 mg/kg
# [7] = male C57BL/6 mice, single oral dose 100 mg/kg
compound,measurement,setting,value
C[C@H](O)[C@@H](NC(=O)CNC(=O)[C@H](N)CCCNC(=N)N)C(=O)N[C@H](Cc1ccccc1)C(=O)N[C@H](CCC(=O)O)C(=O)NCC(=O)N[C@H](CCCCN)C(=O)N[C@H](Cc1ccccc1)C(=O)O [D-AIP] (H-[dR]G[dT][dF][dE]G[dK][dF]-OH; N-terminus and C-terminus assumed),"stability, MALDI-TOF MS signal (941 m/z)","[1]; 37° C., 24 h",relatively stable up to 24 h
same,"metabolised at 24 h, 1 ug/mL","[1]; both sexes, C57BL/6, 24 h incubation, read-out: decrease of signal",~50%
same,dose relationship of AUC values,"[2]; 10, 30, 100 mg/kg oral, both sexes",linear in both sexes
same,plasma concentration decline,"[2]; both sexes, all doses",reached baseline levels after 24 h
same,CL/F (apparent total clearance from plasma),[2]; [3],30.04 L/h
same,λz (elimination rate constant),[2]; [3],0.06 h⁻¹
same,CL/F (apparent total clearance from plasma),[2]; [4],42.02 L/h
same,λz (elimination rate constant),[2]; [4],0.10 h⁻¹
same,CL/F (apparent total clearance from plasma),[2]; [5],51.54 L/h
same,λz (elimination rate constant),[2]; [5],0.21 h⁻¹
same,CL/F (apparent total clearance from plasma),[2]; [6],35.81 L/h
same,λz (elimination rate constant),[2]; [6],0.15 h⁻¹
same,CL/F (apparent total clearance from plasma),"[2]; male C57BL/6 mice, single oral dose 30 mg/kg",36.02 L/h
same,λz (elimination rate constant),"[2]; male C57BL/6 mice, single oral dose 30 mg/kg, 30 mg/kg",0.21 h^−1 and 0.21. h^−1
same,CL/F (apparent total clearance from plasma),[2]; [7],48.79 L/h
same,λz (elimination rate constant),[2]; [7],0.24 h⁻¹
